Test results reported in patent US10829501B2 (BRISTOL-MYERS SQUIBB COMPANY, priority 2016, dated 2020).

What follows are compounds tested against ROCK2 (Homo sapiens, UniProt O75116) (assay: ROCK2 kinase inhibition assay (LABCHIP 3000 Reader, FITC peptide substrate);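 also: rho kinase reaction read by separating phosphorylated from unphosphorylated peptide on chip, with inhibition of kinase activity computed per concentration across a dose-response series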).
ROCK2, sequence (O75116 whole entry, species assumed): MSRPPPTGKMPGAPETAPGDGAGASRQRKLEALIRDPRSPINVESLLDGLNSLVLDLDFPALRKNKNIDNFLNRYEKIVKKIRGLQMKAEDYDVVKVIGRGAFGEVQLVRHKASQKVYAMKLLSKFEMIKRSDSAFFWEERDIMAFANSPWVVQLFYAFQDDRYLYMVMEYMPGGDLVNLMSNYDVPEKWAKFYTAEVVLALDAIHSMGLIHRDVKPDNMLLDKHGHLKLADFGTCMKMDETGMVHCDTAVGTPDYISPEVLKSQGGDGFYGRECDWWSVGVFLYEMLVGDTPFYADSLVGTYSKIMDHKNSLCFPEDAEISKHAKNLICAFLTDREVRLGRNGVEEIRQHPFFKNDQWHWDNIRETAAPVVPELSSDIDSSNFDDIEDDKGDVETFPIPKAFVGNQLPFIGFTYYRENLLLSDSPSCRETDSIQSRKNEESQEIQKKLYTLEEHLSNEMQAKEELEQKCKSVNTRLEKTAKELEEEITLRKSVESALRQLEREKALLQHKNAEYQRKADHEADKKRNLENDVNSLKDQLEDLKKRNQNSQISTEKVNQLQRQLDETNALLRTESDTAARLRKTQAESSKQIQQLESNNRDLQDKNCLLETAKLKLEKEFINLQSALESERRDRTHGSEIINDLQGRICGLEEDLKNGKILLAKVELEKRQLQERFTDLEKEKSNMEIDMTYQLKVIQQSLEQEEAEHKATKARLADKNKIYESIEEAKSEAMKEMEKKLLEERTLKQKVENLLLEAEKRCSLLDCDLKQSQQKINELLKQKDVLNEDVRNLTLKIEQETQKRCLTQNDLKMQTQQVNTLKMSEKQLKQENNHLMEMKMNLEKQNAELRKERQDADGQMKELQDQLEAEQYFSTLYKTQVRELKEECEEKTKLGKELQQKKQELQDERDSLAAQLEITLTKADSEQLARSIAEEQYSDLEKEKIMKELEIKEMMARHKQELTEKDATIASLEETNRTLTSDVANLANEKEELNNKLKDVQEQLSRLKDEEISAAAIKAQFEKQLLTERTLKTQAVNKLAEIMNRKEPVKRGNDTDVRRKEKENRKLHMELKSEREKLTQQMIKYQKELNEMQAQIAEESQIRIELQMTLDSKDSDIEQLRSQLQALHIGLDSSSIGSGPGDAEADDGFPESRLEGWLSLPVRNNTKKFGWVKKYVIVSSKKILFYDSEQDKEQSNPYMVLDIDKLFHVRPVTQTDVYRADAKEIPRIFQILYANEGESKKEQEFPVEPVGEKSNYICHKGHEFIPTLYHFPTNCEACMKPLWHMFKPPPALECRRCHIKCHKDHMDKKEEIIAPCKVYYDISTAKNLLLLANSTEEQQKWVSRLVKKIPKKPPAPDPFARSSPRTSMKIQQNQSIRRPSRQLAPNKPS

SMILES	IC50 [nM]
CC(C)(O)COc1ccc2c(C(=O)NC3CC4(C3)CC(Oc3cc(-c5cccc(OCCCN)c5)ccc3C(N)=O)C4)cnn2c1 (stereo not drawn) [Example 288, N-(6-((3′-(3-aminopropoxy)-4-carbamoyl-[1,1′-biphenyl]-3-yl)oxy)spiro[3.3]heptan-2-yl)-6-(2-hydroxy-2-methylpropoxy)pyrazolo[1,5-a]pyridine-3-carboxamide]	5 to 50
CC(C)(O)COc1ccc2c(C(=O)NC3CC4(C3)CC(Oc3cc(-c5cccc(C(N)=O)c5)ccc3C(N)=O)C4)cnn2c1 (stereo not drawn) [Example 289, 3′-((6-(6-(2-hydroxy-2-methylpropoxy)pyrazolo[1,5-a]pyridine-3-carboxamido)spiro[3.3]heptan-2-yl)oxy)-[1,1′-biphenyl]-3,4′-dicarboxamide]	< 5
CC(C)(O)COc1ccc2c(C(=O)NC3CC4(C3)CC(Oc3cc(-c5cccc(/C=C/C(=O)O)c5)ccc3C(N)=O)C4)cnn2c1 (stereo not drawn) [Example 291, (E)-3-(4′-carbamoyl-3′-((6-(6-(2-hydroxy-2-methylpropoxy)pyrazolo[1,5-a]pyridine-3-carboxamido)spiro[3.3]heptan-2-yl)oxy)-[1,1′-biphenyl]-3-yl)acrylic acid]	5 to 50
CC(C)(O)COc1ccc2c(C(=O)NC3CC4(C3)CC(Oc3cc(-c5cccc(C(=O)N6CCOCC6)c5)ccc3C(N)=O)C4)cnn2c1 (stereo not drawn) [Example 294, N-(6-((4-carbamoyl-3′-(morpholine-4-carbonyl)-[1,1′-biphenyl]-3-yl)oxy)spiro[3.3]heptan-2-yl)-6-(2-hydroxy-2-methylpropoxy)pyrazolo[1,5-a]pyridine-3-carboxamide]	5 to 50
CC(C)(O)COc1ccc2c(C(=O)NC3CC4(C3)CC(Oc3cc(-c5cccc(C(=O)O)c5)ccc3C(N)=O)C4)cnn2c1 (stereo not drawn) [Example 296, 4′-carbamoyl-3′-((6-(6-(2-hydroxy-2-methylpropoxy)pyrazolo[1,5-a]pyridine-3-carboxamido)spiro[3.3]heptan-2-yl)oxy)-[1,1′-biphenyl]-3-carboxylic acid]	5 to 50
CC(C)(O)COc1ccc2c(C(=O)NC3CC4(C3)CC(Oc3cc(-c5cccc(S(N)(=O)=O)c5)ccc3C(N)=O)C4)cnn2c1 (stereo not drawn) [Example 298, N-(6-((4-carbamoyl-3′-sulfamoyl-[1,1′-biphenyl]-3-yl)oxy)spiro[3.3]heptan-2-yl)-6-(2-hydroxy-2-methylpropoxy)pyrazolo[1,5-a]pyridine-3-carboxamide]	< 5
CC(C)(O)COc1ccc2c(C(=O)NC3CC4(C3)CC(Oc3cc(CCCN)ccc3C(N)=O)C4)cnn2c1 (stereo not drawn) [Example 300, N-(6-(5-(3-aminopropyl)-2-carbamoylphenoxy)spiro[3.3]heptan-2-yl)-6-(2-hydroxy-2-methylpropoxy)pyrazolo[1,5-a]pyridine-3-carboxamide]	< 5
CC(C)(O)COc1ccc2c(C(=O)NC3CC4(C3)CC(Oc3cc(CCCCN)ccc3C(N)=O)C4)cnn2c1 (stereo not drawn) [Example 305, N-(6-(5-(4-aminobutyl)-2-carbamoylphenoxy)spiro[3.3]heptan-2-yl)-6-(2-hydroxy-2-methylpropoxy)pyrazolo[1,5-a]pyridine-3-carboxamide]	< 5
CC(F)(F)COc1ccc2c(C(=O)N[C@H]3CC4(C3)C[C@H](Oc3ncccc3C(N)=O)C4)cnn2c1 (stereo partly drawn) [Example 308, N-((aR)-6-((3-carbamoylpyridin-2-yl)oxy)spiro[3.3]heptan-2-yl)-6-(2,2-difluoropropoxy)pyrazolo[1,5-a]pyridine-3-carboxamide]	< 5
CC(F)(F)COc1ccc2c(C(=O)N[C@H]3CC4(C3)C[C@H](Oc3ncccc3C(N)=O)C4)cnn2c1C1CC1 (stereo partly drawn) [Example 309, N-((aR)-6-((3-carbamoylpyridin-2-yl)oxy)spiro[3.3]heptan-2-yl)-7-cyclopropyl-6-(2,2-difluoropropoxy)pyrazolo[1,5-a]pyridine-3-carboxamide]	< 5
NC(=O)c1cccnc1O[C@H]1CC2(C[C@H](NC(=O)c3cnn4cc(OC(F)F)ccc34)C2)C1 (stereo partly drawn) [Example 312, N-((aR)-6-((3-carbamoylpyridin-2-yl)oxy)spiro[3.3]heptan-2-yl)-6-(difluoromethoxy)pyrazolo[1,5-a]pyridine-3-carboxamide]	5 to 50

Next, values leading:

IC50 [nM]	SMILES
5 to 50	CNC(=O)c1cccc(-c2ccc(C(N)=O)c(OC3CC4(CC(NC(=O)c5cnn6cc(OCC(C)(C)O)ccc56)C4)C3)c2)c1 (stereo not drawn) [Example 287, 3′-((6-(6-(2-hydroxy-2-methylpropoxy)pyrazolo[1,5-a]pyridine-3-carboxamido)spiro[3.3]heptan-2-yl)oxy)-N3-methyl-[1,1′-biphenyl]-3,4′-dicarboxamide]
5 to 50	CC(C)(O)COc1ccc2c(C(=O)NC3CC4(C3)CC(Oc3cc(/C=C/CCO)ccc3C(N)=O)C4)cnn2c1 (stereo not drawn) [Example 290, (E)-N-(6-(2-carbamoyl-5-(4-hydroxybut-1-en-1-yl)phenoxy)spiro[3.3]heptan-2-yl)-6-(2-hydroxy-2-methylpropoxy)pyrazolo[1,5-a]pyridine-3-carboxamide]
< 5	CC(C)(O)COc1ccc2c(C(=O)NC3CC4(C3)CC(Oc3cc(-c5ccc(F)c(C(N)=O)c5)ccc3C(N)=O)C4)cnn2c1 (stereo not drawn) [Example 292, 4-fluoro-3′-((6-(6-(2-hydroxy-2-methylpropoxy)pyrazolo[1,5-a]pyridine-3-carboxamido)spiro[3.3]heptan-2-yl)oxy)-[1,1′-biphenyl]-3,4′-dicarboxamide]
5 to 50	COCCNC(=O)c1cccc(-c2ccc(C(N)=O)c(OC3CC4(CC(NC(=O)c5cnn6cc(OCC(C)(C)O)ccc56)C4)C3)c2)c1 (stereo not drawn) [Example 293, 3′-((6-(6-(2-hydroxy-2-methylpropoxy)pyrazolo[1,5-a]pyridine-3-carboxamido)spiro[3.3]heptan-2-yl)oxy)-N3-(2-methoxyethyl)-[1,1′-biphenyl]-3,4′-dicarboxamide]
5 to 50	CNC(=O)c1cc(-c2ccc(C(N)=O)c(OC3CC4(CC(NC(=O)c5cnn6cc(OCC(C)(C)O)ccc56)C4)C3)c2)ccc1F (stereo not drawn) [Example 295, 4-fluoro-3′-((6-(6-(2-hydroxy-2-methylpropoxy)pyrazolo[1,5-a]pyridine-3-carboxamido)spiro[3.3]heptan-2-yl)oxy)-N3-methyl-[1,1′-biphenyl]-3,4′-dicarboxamide]
< 5	CC(C)(O)COc1ccc2c(C(=O)NC3CC4(C3)CC(Oc3cc(-c5cccc(S(=O)(=O)NCCO)c5)ccc3C(N)=O)C4)cnn2c1 (stereo not drawn) [Example 297, N-(6-((4-carbamoyl-3′-(N-(2-hydroxyethyl)sulfamoyl)-[1,1′-biphenyl]-3-yl)oxy)spiro[3.3]heptan-2-yl)-6-(2-hydroxy-2-methylpropoxy)pyrazolo[1,5-a]pyridine-3-carboxamide]
5 to 50	CC(C)(O)COc1ccc2c(C(=O)NC3CC4(C3)CC(Oc3cc(-c5ccc(F)c(-c6nnn[nH]6)c5)ccc3C(N)=O)C4)cnn2c1 (stereo not drawn) [Example 299, N-(6-((4-carbamoyl-4′-fluoro-3′-(1H-tetrazol-5-yl)-[1,1′-biphenyl]-3-yl)oxy)spiro[3.3]heptan-2-yl)-6-(2-hydroxy-2-methylpropoxy)pyrazolo[1,5-a]pyridine-3-carboxamide]
5 to 50	CC(C)(O)COc1ccc2c(C(=O)NC3CC4(C3)CC(Oc3cc(C5CCNC5)ccc3C(N)=O)C4)cnn2c1 (stereo not drawn) [Example 301, N-(6-(2-carbamoyl-5-(pyrrolidin-3-yl)phenoxy)spiro[3.3]heptan-2-yl)-6-(2-hydroxy-2-methylpropoxy)pyrazolo[1,5-a]pyridine-3-carboxamide]
< 5	CC(C)(O)COc1ccc2c(C(=O)N[C@H]3CC4(C3)C[C@H](Oc3cc(Br)ccc3C(N)=O)C4)cnn2c1 (stereo partly drawn) [Example 302, N-((aR)-6-(5-bromo-2-carbamoylphenoxy)spiro[3.3]heptan-2-yl)-6-(2-hydroxy-2-methylpropoxy)pyrazolo[1,5-a]pyridine-3-carboxamide]
50 to 250	NC(=O)c1ccccc1O[C@H]1CC2(C[C@H](NC(=O)c3cnn4ccccc34)C2)C1 (stereo partly drawn) [Example 303, N-((aR)-6-(2-carbamoylphenoxy)spiro[3.3]heptan-2-yl)pyrazolo[1,5-a]pyridine-3-carboxamide]
5 to 50	CC(C)(O)COc1ccc2c(C(=O)NC3CC4(C3)CC(Oc3cc(CC5CCNC5)ccc3C(N)=O)C4)cnn2c1 (stereo not drawn) [Example 304, N-(6-(2-carbamoyl-5-(pyrrolidin-3-ylmethyl)phenoxy)spiro[3.3]heptan-2-yl)-6-(2-hydroxy-2-methylpropoxy)pyrazolo[1,5-a]pyridine-3-carboxamide]
50 to 250	CC(C)(O)COc1ccc2c(C(=O)NC3CC4(C3)CC(Oc3nc(OCCN)ncc3C(N)=O)C4)cnn2c1C1CC1 (stereo not drawn) [Example 306, N-(6-((2-(2-aminoethoxy)-5-carbamoylpyrimidin-4-yl)oxy)spiro[3.3]heptan-2-yl)-7-cyclopropyl-6-(2-hydroxy-2-methylpropoxy)pyrazolo[1,5-a]pyridine-3-carboxamide]
5 to 50	[H][C@]1(Oc2ncccc2C(N)=O)C[C@@]2(C[C@H](NC(=O)c3cnn4c(Br)c(OCC(C)(F)F)ccc34)C2)C1 (stereo partly drawn) [Example 307, 7-bromo-N-((aR)-6-((3-carbamoylpyridin-2-yl)oxy)spiro[3.3]heptan-2-yl)-6-(2,2-difluoropropoxy)pyrazolo[1,5-a]pyridine-3-carboxamide]
< 5	CC(F)(F)COc1ccc2c(C(=O)N[C@H]3CC4(C3)C[C@H](Oc3ncccc3C(N)=O)C4)cnn2c1-c1cn[nH]c1 (stereo partly drawn) [Example 310, N-((aR)-6-((3-carbamoylpyridin-2-yl)oxy)spiro[3.3]heptan-2-yl)-6-(2,2-difluoropropoxy)-7-(1H-pyrazol-4-yl)pyrazolo[1,5-a]pyridine-3-carboxamide]
50 to 250	NC(=O)c1cccnc1O[C@H]1CC2(C[C@H](NC(=O)c3cnn4ccccc34)C2)C1 (stereo partly drawn) [Example 311, N-((aR)-6-((3-carbamoylpyridin-2-yl)oxy)spiro[3.3]heptan-2-yl)pyrazolo[1,5-a]pyridine-3-carboxamide]
5 to 50	NC(=O)c1cccnc1O[C@H]1CC2(C[C@H](NC(=O)c3cnn4cc(OCC(F)F)ccc34)C2)C1 (stereo partly drawn) [Example 313, N-((aR)-6-((3-carbamoylpyridin-2-yl)oxy)spiro[3.3]heptan-2-yl)-6-(2,2-difluoroethoxy)pyrazolo[1,5-a]pyridine-3-carboxamide]
